According to PubChem BioAssay (NCI):
Where “and” joins values, the source holds several entries; their conditions need not be identical. Identical values can stand only once.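 Each compound was tested at five concentrations against cells in 96-well plates for 48 hours. Here, GI50 denotes the concentration required for 50% inhibition of growth. Definition used: TGI = concentration required for complete inhibition of growth.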

How the values were obtained:
Assay in all cases: NCI tumour cell line growth inhibition, 48 h
OVCAR-4 ovarian = tested on: OVCAR-4 ovarian
SW-620 colon = tested on: SW-620 colon
OVCAR-3 ovarian = tested on: OVCAR-3 ovarian
HOP-62 NSCLC = tested on: HOP-62 NSCLC
MDA-MB-435 = tested on: MDA-MB-435
NCI-H23 lung = tested on: NCI-H23 lung
KM12 colon = tested on: KM12 colon
HS 578T breast = tested on: HS 578T breast
SK-MEL-5 melanoma = tested on: SK-MEL-5 melanoma
UACC-62 melanoma = tested on: UACC-62 melanoma

| Compound | TGI (OVCAR-4 ovarian) | TGI (SW-620 colon) | TGI (OVCAR-3 ovarian) | TGI (HOP-62 NSCLC) | TGI (MDA-MB-435) | TGI (NCI-H23 lung) | TGI (KM12 colon) | TGI (HS 578T breast) | TGI (SK-MEL-5 melanoma) | TGI (UACC-62 melanoma) | GI50 (OVCAR-4 ovarian) | GI50 (SW-620 colon) | GI50 (OVCAR-3 ovarian) | GI50 (HOP-62 NSCLC) | GI50 (MDA-MB-435) | GI50 (NCI-H23 lung) | GI50 (KM12 colon) | GI50 (HS 578T breast) | GI50 (SK-MEL-5 melanoma) | GI50 (UACC-62 melanoma) |
| --- | --- | --- | --- | --- | --- | --- | --- | --- | --- | --- | --- | --- | --- | --- | --- | --- | --- | --- | --- | --- |
| COc1ccc2c(c1)/c(=C/C#N)c1c3ccccc3[n+](C)n21 | 22.9 µM | > 39.2 µM | 4.29 µM | 29.6 µM | 19.3 µM | 45.4 µM | 17.9 µM | 50.4 µM | > 44.8 µM | 42.3 µM | – | – | – | – | – | – | – | – | – | – |
| CSc1ccc2c(c1)c(CCN)c(C)n2Cc1ccccc1Cl | 3.29 µM | 3.89 µM | 3.3 µM | 2.62 µM | 3.08 µM | 3.86 µM | 3.32 µM | 3.67 µM | 3.11 µM | 3.05 µM | – | – | – | – | – | – | – | – | – | – |
| O=C1c2cccnc2-c2nccc3c2c1nc1ccccc13 | 3.56 µM | 0.237 µM | 0.0987 µM | 0.514 µM | 0.444 µM | 0.518 µM | 1.03 µM | 2.26 µM | 0.168 µM | 0.541 µM | – | – | – | – | – | – | – | – | – | – |
| COC(=O)c1c2c(cc3c1CC1(Cc4ccccc4C1)C3)CCC2 | > 100 µM | 39.7 µM | 47.6 µM | > 100 µM | 39.1 µM | > 100 µM | 70.2 µM | 79.7 µM | 31.7 µM | 58.8 µM | – | – | – | – | – | – | – | – | – | – |
| CCCN(CCC)C(=O)c1c(N2CCN(C)CC2)c2cccnc2n2c(C)cnc12 | > 100 µM | 45.5 µM | > 100 µM | > 100 µM | > 100 µM | > 100 µM | > 100 µM | > 100 µM | > 100 µM | > 100 µM | – | – | – | – | – | – | – | – | – | – |
| COc1cc(/C=C/C(=N\NC(N)=S)c2sc(NNC(C)=O)nc2C)ccc1O | > 100 µM | > 100 µM | > 100 µM | > 100 µM | > 100 µM | > 100 µM | > 100 µM | > 100 µM | > 100 µM | > 100 µM | – | – | – | – | – | – | – | – | – | – |
| Cc1ccc(S(=O)(=O)N(CCNC(=O)c2cccc(O)c2O)c2cc3c4c(c2)Oc2cccc5c2C4(C)c2c(cccc2O3)O5)cc1 | > 100 µM | > 100 µM | > 100 µM | > 100 µM | > 100 µM | > 100 µM | > 100 µM | > 100 µM | > 100 µM | > 100 µM | – | – | – | – | – | – | – | – | – | – |
| CCSc1nc(N/N=C/c2cccs2)c2cnn(CO)c2n1 | > 100 µM | 24.2 µM | 19 µM | 14.9 µM | 18.9 µM | 17.3 µM | 12.4 µM | 15.3 µM | 12.9 µM | 22.5 µM | – | – | – | – | – | – | – | – | – | – |
| O=c1/c(=C/c2ccccn2)sc2nc3cc4c(cc3n12)OCCO4 | > 100 µM | > 100 µM | > 100 µM | > 100 µM | > 100 µM | > 100 µM | > 100 µM | > 100 µM | > 100 µM | > 100 µM | – | – | – | – | – | – | – | – | – | – |
| CN(C)CC1CCC/C(=C\c2ccc(OC(=O)/C=C/c3ccc(Cl)cc3)cc2)C1=O (stereo not given) | 35.9 µM | 6.44 µM | 12.4 µM | 14.8 µM | 21.1 µM | 14.1 µM | 4.38 µM | 24.6 µM | 9.46 µM | 19.1 µM | – | – | – | – | – | – | – | – | – | – |
| CCNC(=S)NNC(=O)c1ccccc1Nc1ccccc1C(=O)NNC(=S)NCC | > 100 µM | > 100 µM | > 100 µM | > 100 µM | > 100 µM | > 100 µM | > 100 µM | > 100 µM | > 100 µM | > 100 µM | – | – | – | – | – | – | – | – | – | – |
| Cc1cc(C)c2c(n1)S(=O)(=O)N(CCCN1CCN(c3cccc(Cl)c3)CC1)/C(=C(\O)c1ccc(Br)cc1)C2=O | 55.8 µM | > 100 µM | 94.7 µM | > 100 µM | 78.8 µM | > 100 µM | > 100 µM | > 100 µM | 39.7 µM | > 100 µM | – | – | – | – | – | – | – | – | – | – |
| CC(=O)NC(C)(C)C1CCC(C)CC1 (stereo not given) | > 100 µM | > 100 µM | > 100 µM | > 100 µM | > 100 µM | > 100 µM | > 100 µM | > 100 µM | > 100 µM | > 100 µM | – | – | – | – | – | – | – | – | – | – |
| COc1ccc([I+]c2ccc(OC)cc2)cc1 | > 100 µM | > 100 µM | > 100 µM | > 73.2 µM and 92 µM | > 100 µM | > 100 µM | > 100 µM | > 100 µM | 20.7 µM and 6.76 µM | > 100 µM | 3.33 µM | 6.66 µM | 11.8 µM | 3.34 µM | 14.7 µM | 4.85 µM | 6.63 µM | 18.8 µM | 1.8 µM | 29.9 µM |
| O=C1CC(c2ccccc2)n2c(nc3ccccc32)N1 (stereo not given) | > 100 µM | > 100 µM | > 100 µM | > 100 µM | > 100 µM | > 100 µM | > 100 µM | > 100 µM | 42.8 µM | > 100 µM | – | – | – | – | – | – | – | – | – | – |
| COC(=O)c1ccccc1C1CN=NC12Cc1ccc3c(c1C2=O)CCC3 (stereo not given) | > 100 µM | > 100 µM | > 100 µM | > 100 µM | > 100 µM | > 100 µM | > 100 µM | > 100 µM | > 100 µM | > 100 µM | – | – | – | – | – | – | – | – | – | – |
